Consider 1 compound from ChEMBL document CHEMBL1150941, “The characterization and structure-activity evaluation of toxic norditerpenoid alkaloids from two Delphinium species” (J Nat Prod, 1998).

This series in a line: Toxicity in iv dosed white Swiss-Webster mouse. The format is organism-based. The settings on record: in vivo.

Molecules are shown by their SMILES.

Consider `CCN1C[C@]2(COC(=O)c3ccccc3N3C(=O)C[C@H](C)C3=O)CC[C@H](O)[C@@]34[C@@H]5C[C@H]6[C@H](OC)[C@@H]5[C@](O)(C[C@@H]6OC)[C@](O)([C@@H](OC)[C@H]23)[C@@H]14` [GRANDIFLORINE], for which the LD50 (as a rule, the dose at which mortality reaches 50%) is 8.3 mg/kg.
